The structures appear in SMILES notation. pIC50: −log10 of the molar value. Bounds are passed on as bounds.

The target in test [1] is T1, FAK phosphorylated at Y397 in HEK-FAK cell line overexpressing human FL FAK protein (Homo sapiens, UniProt Q05397).
T1 construct: expressed in transfected cells
As to the kind of experiment: Cell based assay, Phospho-FAK ELISA. As to conditions: HEK stb; read-out: pFAK EC50 (μM) HEK stb. The source says: D. Cell Based Assay-Phospho-FAK ELISA
The DuoSet IC ELISA (R&D systems—Cat no. DYC4528-5) provided the basic components required for the development of sandwich ELISAs to measure Focal Adhesion Kinase 1 (FAK) phosphorylated at Y397 in cell lysates. An immobilized capture antibody specific for FAK, also known as PTK2, binds both phosphorylated and unphosphorylated protein. After washing away unbound material, a biotinylated detection antibody specific for FAK phosphorylated at Y397 was used to detect only phosphorylated protein, utilizing a standard Streptavidin-HRP format. The cell line used for the assay was a stable HEK-FAK cell line overexpressing human FL FAK protein, which was generated as follows.
HEK293 cells (ATCC® CRL-1573™, 10801 University Boulevard, Manassas, Va. 20110 USA) were seeded in four 100 mm petri dishes at a seeding density of 1.5×10^6 cells per plate and incubated overnight at 37° C. in a 5% CO2 incubator. The transfection mix was prepared as follows. (A) 10 μg DNA (pCDNA4 V5/HisA vector containing Zeocin as mammalian selection marker, procured from Invitrogen) with the full length human FAK gene represented by the nucleotide sequence provided in NCBI Reference Sequence: NM_153831.3, SEQ ID NO: 1:
was added to 1.5 mL Opti-MEM® (reduced serum media is a modification of Eagle's Minimum Essential Media, buffered with HEPES and sodium bicarbonate and supplemented with hypoxanthine, thymidine, sodium pyruvate, L-glutamine, trace elements and growth factors commercially available from Invitrogen) and incubated at room temperature for 5 minutes. (B) 30 μL Lipofectamine™ Transfection reagent (Life Technologies) was added to 1.5 mL Opti-MEM® and incubated at room temperature for 5 minutes. Following this, (a) and (b) were mixed and incubated at room temperature for 20 minutes. Media was removed from cells and washed with 1× phosphate buffered saline (PBS) and the transfection mix prepared above was mixed with 3 mL of Opti-MEM®, added to the cells and incubated at 37° C. Four hours later, 6 mL of 20% Dulbecco's Modified Eagle Medium (DMEM) was added to the plates and incubated at 37° C. in a 5% CO2 incubator. Approximately 72 hours after transfection, cells were subcultured at various dilutions with fresh medium containing 0.8 mg/mL Zeocin™ (Life Technologies). Cells were replenished with selective medium every 3-4 days until cell foci were identified in the FAK transfected cells and most of the cells died in the control plates. Cells from these foci were grown in the presence of selective media and the expression of FAK was confirmed by Western Blotting. Over expression of FAK in the stably-transfected cells was quantified in the cell-based ELISA assay described below by determining the signal window, with a signal window of 2 or above considered to be robust). The HEK-FAK stable cell line thus was maintained in 0.8 mg/mL Zeocin™ (Life Technologies) and used in cell-based ELISA to assess autophosphorylation of FAK.
(i) Materials • 1. Phospho-FAK (Y397)-Capture Antibody • 2. Phospho-FAK (Y397)-Detection Antibody • 3. Streptavidin-HRP • 4. Cells used for the assay-HEK over expressing human FL FAK protein
(ii) Solutions • PBS—137 mM NaCl, 2.7 mM KCl, 8.1 mM Na2HPO4, 1.5 mM KH2PO4, pH 7.2-7.4, 0.2 μm filtered. • Wash Buffer—0.05% Tween20™ in PBS, pH 7.2-7.4 • Block Buffer—1% BSA, 0.05% NaN3, in PBS, pH 7.2-7.4. • IC Diluent #1-1% BSA in PBS, pH 7.2-7.4, 0.2 μm filtered. • IC Diluent #8-1 mM EDTA, 0.5% Triton™ X-100, 5 mM NaF in PBS, pH 7.2-7.4. IC Diluent #8 was also the base buffer for IC Diluent #3, IC Diluent #7, and Lysis. • Buffer #6. […]
(In general: An ELISA detects its analyte on a solid surface through an enzyme-linked reagent.)

The target in the next test is T2, AURKB (Aurora B) enzyme (Homo sapiens, UniProt Q96GD4).
T2 construct: purchased Invitrogen PVR 130
Put plainly: Aurora B HTRF assay. The test is classed as biochemical. As to conditions: read-out: AuroraB IC50. In short, it runs like this:
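HTRF kinase assay with 5 nM Aurora B and 50 nM ULight-PLK (Ser137) peptide, with a reagent at 30 μM final; 1 h at rt. Reaction stopped with EDTA, and phospho-peptide detected with 2 nM Eu-anti-P-PLK(Ser137) antibody after 1 h at rt, read as HTRF.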

The target in the next test is T3, recombinant human FAK1 (Homo sapiens, UniProt Q05397).
T3 construct: fused on or other part: N-terminal 6xHis tag
Put plainly: FAK1 HTRF assay. It is filed as biochemical. In short, it runs like this: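 His-tagged human FAK1 (residues 692–end, Sf9-expressed), 10 nM final, with 0.5 μM biotinylated gastrin-precursor Tyr87 peptide and a 10 μM final reagent in pH 7.4 buffer, 45 min at rt. Detection used Eu anti-pTyr antibody plus SA-APC (665/620 nm). Compounds top concentration 10 μM; IC50 from % inhibition.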
For orientation: In TR-FRET formats the signal depends on donor and acceptor labels being close together.

The target of the next test is T4, Recombinant Src enzyme (Homo sapiens, UniProt P12931).
T4 construct: purchased Millipore 14-326; host or cells: Sf21 insect cells
Put plainly: Src HTRF assay. It is filed as biochemical. In short, it runs like this:
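Sf21-expressed recombinant Src at 5 nM final with biotinylated N-terminally tagged Tyk2 peptide substrate at 0.5 μM final; a component freshly made in enzyme assay buffer pH7.4 was used at 10 μM final. Buffer, supplements, compound handling and procedure as in the FAK HTRF assay; dasatinib included.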

T1 sequence (Q05397 whole entry): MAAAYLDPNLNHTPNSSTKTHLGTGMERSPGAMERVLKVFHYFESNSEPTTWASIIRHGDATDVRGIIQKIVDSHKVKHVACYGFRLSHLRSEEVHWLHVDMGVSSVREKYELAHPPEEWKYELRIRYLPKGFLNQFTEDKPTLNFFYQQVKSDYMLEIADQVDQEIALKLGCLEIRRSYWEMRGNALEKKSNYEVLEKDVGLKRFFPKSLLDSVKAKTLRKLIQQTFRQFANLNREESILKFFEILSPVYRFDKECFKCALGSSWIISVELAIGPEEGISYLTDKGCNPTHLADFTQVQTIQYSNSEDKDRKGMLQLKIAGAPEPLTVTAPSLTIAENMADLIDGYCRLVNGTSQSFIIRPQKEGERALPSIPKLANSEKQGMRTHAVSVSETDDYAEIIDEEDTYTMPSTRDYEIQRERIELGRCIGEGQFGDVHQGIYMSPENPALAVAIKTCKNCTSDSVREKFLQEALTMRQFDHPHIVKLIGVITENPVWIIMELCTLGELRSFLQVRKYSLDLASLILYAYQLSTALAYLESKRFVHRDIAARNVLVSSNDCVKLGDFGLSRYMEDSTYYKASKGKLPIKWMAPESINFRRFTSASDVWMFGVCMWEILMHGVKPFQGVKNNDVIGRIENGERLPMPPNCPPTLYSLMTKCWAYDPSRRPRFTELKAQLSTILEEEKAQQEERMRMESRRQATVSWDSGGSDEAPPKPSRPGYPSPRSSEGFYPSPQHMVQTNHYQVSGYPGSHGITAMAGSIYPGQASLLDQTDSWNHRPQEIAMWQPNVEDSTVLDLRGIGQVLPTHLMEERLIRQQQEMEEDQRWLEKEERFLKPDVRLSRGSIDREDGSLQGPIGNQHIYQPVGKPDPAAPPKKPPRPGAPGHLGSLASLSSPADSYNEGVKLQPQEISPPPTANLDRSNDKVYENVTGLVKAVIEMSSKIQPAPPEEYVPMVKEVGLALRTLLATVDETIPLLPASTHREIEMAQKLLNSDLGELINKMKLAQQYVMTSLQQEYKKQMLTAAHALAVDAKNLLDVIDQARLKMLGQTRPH
T2 sequence (Q96GD4 whole entry): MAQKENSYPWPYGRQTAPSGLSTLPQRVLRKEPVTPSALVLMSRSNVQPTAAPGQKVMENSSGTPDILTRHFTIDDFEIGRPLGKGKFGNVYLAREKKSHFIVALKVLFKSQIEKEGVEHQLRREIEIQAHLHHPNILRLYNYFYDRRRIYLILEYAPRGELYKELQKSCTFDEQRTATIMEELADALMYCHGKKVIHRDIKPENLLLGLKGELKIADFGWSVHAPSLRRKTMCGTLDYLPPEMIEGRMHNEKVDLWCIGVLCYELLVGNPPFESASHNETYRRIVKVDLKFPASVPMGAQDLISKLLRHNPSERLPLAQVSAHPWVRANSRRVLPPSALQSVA
T4 sequence (P12931 whole entry): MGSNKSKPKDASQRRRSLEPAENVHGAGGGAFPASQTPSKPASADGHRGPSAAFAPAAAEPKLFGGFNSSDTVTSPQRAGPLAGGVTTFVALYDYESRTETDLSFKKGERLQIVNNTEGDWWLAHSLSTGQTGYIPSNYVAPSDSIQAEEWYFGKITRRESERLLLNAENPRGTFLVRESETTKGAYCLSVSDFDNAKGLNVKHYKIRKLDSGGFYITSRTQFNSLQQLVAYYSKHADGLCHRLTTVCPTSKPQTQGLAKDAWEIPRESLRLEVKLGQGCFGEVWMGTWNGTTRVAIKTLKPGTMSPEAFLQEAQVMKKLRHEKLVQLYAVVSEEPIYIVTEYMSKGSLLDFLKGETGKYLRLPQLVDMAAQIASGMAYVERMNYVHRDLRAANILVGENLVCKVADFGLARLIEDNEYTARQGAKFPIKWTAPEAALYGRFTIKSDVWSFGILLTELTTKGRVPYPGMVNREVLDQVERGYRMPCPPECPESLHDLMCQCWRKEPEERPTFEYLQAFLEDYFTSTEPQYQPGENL
T3 sequence (Q05397 422-680 limits assumed): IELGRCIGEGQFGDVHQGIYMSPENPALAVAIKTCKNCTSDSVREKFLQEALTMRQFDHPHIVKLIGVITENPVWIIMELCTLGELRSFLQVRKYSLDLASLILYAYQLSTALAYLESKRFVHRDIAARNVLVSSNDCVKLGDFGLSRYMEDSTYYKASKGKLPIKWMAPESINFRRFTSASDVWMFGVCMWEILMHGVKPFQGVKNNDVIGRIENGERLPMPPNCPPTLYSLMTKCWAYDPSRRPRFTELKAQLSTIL

By EC50 is commonly meant the concentration giving half of the maximal effect. Take `CN(c1ncccc1Cn1ccc2cnc(Nc3ccc4[nH]c(C(=O)N5CCNCC5)cc4c3)nc21)S(C)(=O)=O` [Example 696]: the EC50 in test [1] was more than 1 µM.
Take `C[C@H](O)CN1CCN(c2ccc(Nc3ncc4ccn(Cc5cccnc5N(C)S(C)(=O)=O)c4n3)cc2)C[C@H]1C` [Example 694]: in test [1], the EC50 is more than 1 µM.
As to `CCC1CN(c2ccc(Nc3ncc4ccn(Cc5cccnc5N(C)S(C)(=O)=O)c4n3)cc2)CCN1` (stereo not shown) [Example 645], the EC50 in test [1] is more than 1 µM.
The pIC50 is the negative decadic logarithm of the IC50, by convention in mol/L. With `O=S(=O)(c1cccc2ccccc12)n1ccc2cnc(Nc3ccc(N4CCNCC4)cc3)nc21` [Example 219], the pIC50 at AURKB (Aurora B) enzyme, on recombinant human FAK1 and at Recombinant Src enzyme was more than 7.70 each time.
On to `O=S(=O)(c1cccc2cccnc12)n1ncc2cnc(Nc3ccc(N4CCC(O)CC4)cc3)cc21` [Example 345], for which the results for the pIC50 on AURKB (Aurora B) enzyme, at recombinant human FAK1 and on Recombinant Src enzyme were more than 7.70, more than 7.70 and less than 6.00, respectively.
Consider `CC(=O)N1CCN(c2ccc(Nc3cc4c(cn3)cnn4S(=O)(=O)c3ccccc3C#N)cc2)CC1` [Example 341], for which, in test [1], the concentration for a half-maximal effect (EC50) was more than 1 µM.
Consider `C[C@@H]1CN(c2ccc(Nc3ncc4ccn(Cc5cccnc5N(C)S(C)(=O)=O)c4n3)cc2F)CCN1` [Example 561], for which, in test [1], the EC50 is more than 1 µM.
As to `COc1cc(N2CCOCC2)ccc1Nc1cc2c(ccn2S(=O)(=O)c2cccc3cccnc23)cn1` [Example 401], the pIC50 was more than 7.70 at AURKB (Aurora B) enzyme, more than 7.70 at recombinant human FAK1 and less than 6.00 at Recombinant Src enzyme.
As for `CN(c1ncccc1Cn1ccc2cnc(Nc3ccc(N4CCOCC4)cn3)nc21)S(C)(=O)=O` [Example 107], the results for the pIC50 at AURKB (Aurora B) enzyme and at Recombinant Src enzyme were more than 7.70 and less than 6.00, respectively.
Consider `Cc1cc(Nc2ncc3ccn(S(=O)(=O)c4ccccc4C#N)c3n2)ccc1N1CCNCC1` [Example 212], for which the pIC50 at AURKB (Aurora B) enzyme, at recombinant human FAK1 and on Recombinant Src enzyme was more than 7.70 each time.
In the case of `FC(F)Oc1ccccc1Cn1ccc2cnc(Nc3ccc4ncsc4c3)cc21` [Example 20], the pIC50 on AURKB (Aurora B) enzyme and on Recombinant Src enzyme was less than 6.00 throughout.
With `CN1C(=O)CCc2cc(Nc3ncc4ccn(Cc5cccnc5N(C)S(C)(=O)=O)c4n3)ccc21` [Example 136], the pIC50 at AURKB (Aurora B) enzyme, at recombinant human FAK1 and at Recombinant Src enzyme was more than 7.70 each time.
With `COc1cc(N2CCC(N(C)C)CC2)ccc1Nc1ncc2ccn(Cc3cccnc3N(C)S(C)(=O)=O)c2n1` [Example 634], the pIC50 on AURKB (Aurora B) enzyme and at Recombinant Src enzyme was less than 6.00 throughout.
On to `Cc1nn(S(=O)(=O)c2ccccc2OC(F)(F)F)c2cc(Nc3ccc4c(c3)CCC(=O)N4)ncc12` [Example 90], for which the pIC50 was more than 7.70 at AURKB (Aurora B) enzyme and less than 6.00 at Recombinant Src enzyme.
Regarding `Cc1cc(Nc2ncc3ccn(S(=O)(=O)c4cccc5cccnc45)c3n2)ccc1N1CCNCC1` [Example 196], the pIC50 at AURKB (Aurora B) enzyme, on recombinant human FAK1 and on Recombinant Src enzyme was more than 7.70 each time.
Take `COc1ccccc1S(=O)(=O)n1ccc2cnc(Nc3ccc(N4CCNCC4)cc3)cc21` [Example 343]: the pIC50 at AURKB (Aurora B) enzyme is more than 7.70; on recombinant human FAK1, more than 7.70; on Recombinant Src enzyme, less than 6.00.
With `COc1cc(Nc2ncc3ccn(Cc4ccccc4N(C)S(C)(=O)=O)c3n2)ccc1N1CCN(C)CC1` [Example 429], the negative-log IC50 (pIC50) on AURKB (Aurora B) enzyme, at recombinant human FAK1 and on Recombinant Src enzyme was more than 7.70 throughout.
For `CN(C)CCOc1cccc(Nc2cc3c(ccn3S(=O)(=O)c3ccccc3OC(F)(F)F)cn2)c1` [Example 126], the pIC50 is more than 7.70 at AURKB (Aurora B) enzyme and less than 6.00 on Recombinant Src enzyme.
In the case of `CS(=O)(=O)N(CCN)c1ccccc1Cn1ccc2cnc(Nc3ccc(N4CCNCC4)cc3)nc21` [Example 558], the pIC50 at AURKB (Aurora B) enzyme, at recombinant human FAK1 and at Recombinant Src enzyme was less than 6.00 throughout.
As to `COc1cc(N2CCN(C)CC2)ccc1Nc1ncc2c(n1)N(S(=O)(=O)c1cccc3cccnc13)CC2(C)C` [Example 504], the pIC50 on AURKB (Aurora B) enzyme was less than 6.00; at recombinant human FAK1 it was more than 7.70; on Recombinant Src enzyme, less than 6.00.
For the compound `O=S(=O)(c1cc(Cl)ccc1Cl)N1CC2(CC2)c2cnc(Nc3ccc(N4CCNCC4)cc3)nc21` [Example 510], the pIC50 at AURKB (Aurora B) enzyme and on Recombinant Src enzyme was less than 6.00 each time.
In the case of `CN(c1ccccc1C(=O)N1CC(C)(C)c2cnc(Nc3ccc(N4CCNCC4)cc3)nc21)S(C)(=O)=O` [Example 528], the pIC50 on AURKB (Aurora B) enzyme, on recombinant human FAK1 and on Recombinant Src enzyme was less than 6.00 throughout.
`COc1cc(N2CCNCC2)ccc1Nc1cc2c(cn1)C(C)(C)CN2S(=O)(=O)c1cccc2cccnc12` [Example 635]: the pIC50 on AURKB (Aurora B) enzyme is less than 6.00; on recombinant human FAK1, more than 7.70; on Recombinant Src enzyme, less than 6.00.
As for `O=c1[nH]c2ccc(Nc3ncc4ccn(S(=O)(=O)c5ccccc5OC(F)(F)F)c4n3)cc2[nH]1` [Example 93], the pIC50 was more than 7.70 at AURKB (Aurora B) enzyme and less than 6.00 on Recombinant Src enzyme.
In the same order, the values of `COc1cc(N2CCC(N(C)C)CC2)ccc1Nc1ncc2ccn(Cc3ccccc3N(C)S(C)(=O)=O)c2n1` [Example 628] are less than 6.00 and less than 6.00.
On to `CN(c1ncccc1CN1CC(C)(C)c2cnc(Nc3ccc(N4CCNCC4)cc3)nc21)S(C)(=O)=O` [Example 437], for which the pIC50 on AURKB (Aurora B) enzyme, at recombinant human FAK1 and on Recombinant Src enzyme was less than 6.00 in each case.
Turning to `COc1cc(N2CCN[C@@H](C)C2)ccc1Nc1ncc2ccn(Cc3cccnc3N(C)S(C)(=O)=O)c2n1` [Example 629], the pIC50 on AURKB (Aurora B) enzyme and on Recombinant Src enzyme was less than 6.00 in each case.
Turning to `COc1cccc(Nc2ncc3ccn(S(=O)(=O)c4ccccc4C#N)c3n2)c1` [Example 178], the pIC50 is more than 7.70 on AURKB (Aurora B) enzyme and less than 6.00 at Recombinant Src enzyme.
In the same order, the values of `CC(=O)Nc1ccc(Nc2cc3c(cn2)cnn3S(=O)(=O)c2cccc3cccnc23)cc1` [Example 315] are more than 7.70 and less than 6.00.
Turning to `CC(=O)Nc1cccc(Nc2cc3c(cn2)cnn3S(=O)(=O)c2ccccc2OC(F)(F)F)c1` [Example 86], the pIC50 on AURKB (Aurora B) enzyme and at Recombinant Src enzyme was less than 6.00 throughout.
In the case of `CN(c1cccc(Cn2ccc3cnc(Nc4ccc5c(c4)CCC(=O)N5)nc32)c1)S(C)(=O)=O` [Example 50], the values for the pIC50 on AURKB (Aurora B) enzyme and at Recombinant Src enzyme were more than 7.70 and less than 6.00, respectively.

The values are drawn from US20160222014A1, “COMPOUNDS FOR REGULATING FAK AND/OR SRC PATHWAYS” (ASANA BIOSCIENCES, LLC, priority 2013, published 2016).
